In experiment [1] the target is T1, Peptide deformylase (Escherichia coli, UniProt Q9JN24).
T1 sequence (Q9JN24 whole entry): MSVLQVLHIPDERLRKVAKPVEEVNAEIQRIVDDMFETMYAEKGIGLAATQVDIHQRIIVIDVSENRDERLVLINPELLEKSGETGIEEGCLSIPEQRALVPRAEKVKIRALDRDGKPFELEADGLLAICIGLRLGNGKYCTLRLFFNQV
As to the kind of experiment: Inhibition of NiCl2 stabilized Escherichia coli NCIM-2931 peptide deformylase using N-formyl-Met-Ala as substrate incubated for 30 mins by spectrophotometric method.

The subject of the next experiment is Bacillus subtilis. As to the kind of experiment: Antibacterial activity against Bacillus subtilis NCIM-2063 after 24 hrs by two fold serial dilution method. It is filed as functional. To be noted: NCIM-2063, 24 h.
For another experiment, the system named is Escherichia coli. As to the kind of experiment: Antibacterial activity against Escherichia coli NCIM-2256 after 24 hrs by two fold serial dilution method. It is filed as functional. To be noted: NCIM-2256, 24 h.
Experiment [2] deals with T1, Peptide deformylase. As to the kind of experiment: Inhibition of Escherichia coli peptide deformylase.

Converted amounts (≈) assume the structure as drawn.

With `N#Cc1ccccc1-c1ccc(CNc2cccc(C(F)(F)F)c2)cc1`, the IC50 (in general, the concentration at which inhibition is half-maximal) against Peptide deformylase [1] was 20.9 µM. Besides, the figures for the MIC against Bacillus subtilis and with Escherichia coli were 25.8 µg/mL (≈ 73.3 µM) and 42.5 µg/mL (≈ 121 µM), respectively.
Regarding `N#Cc1ccccc1-c1ccc(CNn2cnnc2)cc1`, at Peptide deformylase [1], the IC50 stood at 50.7 µM. In addition, the MIC (commonly the smallest concentration in the dilution series that meets the test's criterion for growth inhibition) was found to be 23.8 µg/mL (≈ 86.3 µM) against Bacillus subtilis and 36.5 µg/mL (≈ 133 µM) with Escherichia coli.
The matching figures for `N#Cc1ccccc1-c1ccc(CNc2ccccc2[N+](=O)[O-])cc1`: 15.7 µM, 23.8 µg/mL (≈ 72.1 µM) and 28.5 µg/mL (≈ 86.5 µM).
Consider `N#Cc1ccccc1-c1ccc(CNc2cnccn2)cc1`, for which the IC50 against Peptide deformylase [1] amounted to 19.2 µM. Besides, the MIC against Bacillus subtilis amounted to 7.66 µg/mL (≈ 26.8 µM); in the experiment on Escherichia coli it was 16.9 µg/mL (≈ 59.1 µM).
Take `N#Cc1ccccc1-c1ccc(CNc2cccc([N+](=O)[O-])c2)cc1`: the IC50 against Peptide deformylase [1] was determined as 25 µM. Also, the MIC is 29.3 µg/mL (≈ 89.1 µM) in the experiment with Bacillus subtilis and 40.9 µg/mL (≈ 124 µM) in the experiment on Escherichia coli.
On Peptide deformylase [1], `N#Cc1ccccc1-c1ccc(CNc2ccc(C(F)(F)F)cc2)cc1` came in with an IC50 of 33.5 µM. Further, the results for the MIC in the experiment with Bacillus subtilis and in the experiment on Escherichia coli were 34.4 µg/mL (≈ 97.7 µM) and 35.5 µg/mL (≈ 101 µM), respectively.
`N#Cc1ccccc1-c1ccc(CNc2ccc(N3CCOCC3)c(F)c2)cc1` returned an IC50 at Peptide deformylase [1] of 42.5 µM. Besides, the MIC worked out at 21.6 µg/mL (≈ 55.7 µM) in the experiment with Bacillus subtilis and 37.3 µg/mL (≈ 96.3 µM) against Escherichia coli.
For the molecule `N#Cc1ccccc1-c1ccc(CNc2ccccc2O)cc1`, the IC50 against Peptide deformylase [1] is 33 µM. The MIC amounted to 29.3 µg/mL (≈ 97.6 µM) in the experiment with Bacillus subtilis and 39.6 µg/mL (≈ 132 µM) against Escherichia coli.
The matching figures for `N#Cc1ccccc1-c1ccc(CNc2ccccc2)cc1`: 13.2 µM, 11 µg/mL (≈ 38.7 µM) and 15.8 µg/mL (≈ 55.7 µM).
The matching figures for `N#Cc1ccccc1-c1ccc(CNc2ccc(O)cc2)cc1`: 34.6 µM, 28.3 µg/mL (≈ 94.3 µM) and 33.6 µg/mL (≈ 112 µM).
Take `CCCc1nc2ccc(Cl)cc2n1Cc1ccc(-c2ccccc2-c2nnn[nH]2)cc1`: the IC50 against Peptide deformylase [2] was determined as 3.9 µM.
Regarding `N#Cc1ccccc1-c1ccc(CNc2ccc(C(=O)O)cc2)cc1`, the IC50 against Peptide deformylase [1] stood at 51.2 µM. Moreover, the results for the MIC with Bacillus subtilis and against Escherichia coli were 26.8 µg/mL (≈ 81.5 µM) and 32.6 µg/mL (≈ 99.2 µM), respectively.
The matching figures for `COc1ccc2nc(NCc3ccc(-c4ccccc4C#N)cc3)sc2c1`: 27.8 µM, 36.2 µg/mL (≈ 97.6 µM) and 35.2 µg/mL (≈ 94.9 µM).
Regarding `N#Cc1ccccc1-c1ccc(CNc2ccc(Cl)cc2[N+](=O)[O-])cc1`, inhibition against Peptide deformylase [1] was half-maximal at 28.3 µM (IC50). In addition, the MIC in the experiment on Bacillus subtilis stood at 27.2 µg/mL (≈ 74.7 µM); with Escherichia coli, 45.6 µg/mL (≈ 125 µM).
On Peptide deformylase [2], `CCCC1=NC2C(C)=CC(C)=NN2C1Cc1ccc(-c2ccccc2C(=O)O)cc1` (configuration not stated) returned a 50% inhibitory concentration (IC50) of 22.8 µM.
As to `O=C(O)c1cn(C2CC2)c2cc(N3CCNCC3)c(F)cc2c1=O` [CIPROFLOXACIN], the MIC in the experiment on Escherichia coli was found to be 25 µg/mL (≈ 75.4 µM).

Values taken from ChEMBL document CHEMBL3813657, “Bacterial Peptide deformylase inhibition of cyano substituted biaryl analogs: Synthesis, in vitro biological evaluation, molecular docking study and in silico ADME prediction” (Bioorg Med Chem, 2016).
